Assay results as given in patent publication US10675306B2, “Adrenomedullin therapy to improve fetal implantation” (The University of North Carolina at Chapel Hill, priority 2015, dated 2020).
Entries after “also recorded” stand apart in the source; their conditions may differ. Positions of bridges follow the written chain, without caps; N, C: chain ends. No end group written: not given here.

Columns and labels:
Type in all cases: in vivo
[1] = tested on: wild-type mice; assay: Pinopode formation and size in uteri treated for 30 min (scanning electron micrographs); conditions: AM 150 pmol, vs vehicle
Experimental: A, Scanning electron micrographs of pinopodes in wild type uteri treated with vehicle, AM, or AM+AM(24-50) for 30 minutes. Scale bars, 5 μm. B-D, Quantitation of pinopodes per field (B), size (C), and percent area of field (D). n=3 animals, n>4 fields per animal. ***p<0.001, unpaired t test.
The effect of AM on pinopode formation and size was studied. Wild-type mice were treated with vehicle, AM (150 pmol), or AM (150 pmol)+AM(24-50) (2 nmol) for 30 min and the amount and size of pinopodes was quantitated (FIGS. 3A-3D).

[2] = tested on: BalbC mice; assay: Blastocyst transfer after intrauterine injection: number and spacing of viable implantation sites; conditions: AM 150 pmol into lumen of each uterine horn, day 2.5 of pseudopregnancy, evaluated three days post-transfer, vs vehicle
Excerpt: A, Images of e6.5 embryos within uteri treated with vehicle, AM, or AM+AM(24-50) prior to transfer of 8 blastocysts per horn. Arrowheads indicate viable implantation sites as determined by uptake of Evans blue dye. Scale bar, 1 cm. B, Quantitation of viable implant sites per horn. ns, not significant. *p<0.05, Mann-Whitney test. C, Illustration of quantitation method for spacing of e6.5 embryos within uterine horns. SD, standard deviation. D, Quantitation of spacing using method depicted in (C). *p<0.05, unpaired t test.
It was hypothesized that administration of AM, an endocrine factor critical for a healthy pregnancy, to female mice would improve uterine receptivity and implantation rates. […] Dams were euthanized three days later, and the number and spacing of the viable implantation sites were evaluated.
Using this conceptually simple but elegant in vivo experiment, it was concluded that delivery of AM directly into the uterine lumen prior to the establishment of pregnancy promotes blastocyst implantation. This conclusion was arrived at by quantitating the number and spacing of viable implantation sites in uterine horns that were treated with either vehicle or AM prior to blastocyst transfer.

[3] = tested on: wild-type mice; assay: Rate of pinopode formation throughout a treatment time course; conditions: AM 150 pmol, days 2.5-3.5 of pseudopregnancy, vs vehicle
Experimental: A, Scanning electron micrographs of vehicle- and AM-treated uteri throughout treatment time course. Scale bars, 1 μm. B, Quantitation of pinopodes per field throughout treatment time course. *p<0.05 at indicated time point, unpaired t test.
Further studies were performed to measure the effect of AM (150 pmol) on the rate of pinopode formation. The number of pinopodes was quantitated throughout a time course of AM treatment in wild-type mice (FIGS. 4A-4B).

adrenomedullin (YRQSMNNFGGLRSFGCRFGTCTVQKLAHQIYQFTDKDKDNVAPRSKISPQGY; disulfide 16-21 (inferred); ends not checked; listed as Homo sapiens) [AM, peptide vasodilator]
pinopode formation (pinopodes per field) [1]: promotes pinopode formation | pinopode size [1]: promotes pinopode formation and size | number of viable implantation sites per horn ([2]; 8 blastocysts per horn 5-10 min later): improves implantation success; also recorded: significantly more embryo implantation sites; also recorded: significantly more viable implantation sites | spacing of viable implantation sites ([2]; 8 blastocysts per horn): improves implantation success and spacing; also recorded: evenly distributed throughout the length of the horn; also recorded: more evenly distributed throughout the length of the horn | rate of pinopode formation (pinopodes per field over time course) [3]: accelerates pinopode formation
